The results in this text go back to US20060046982A1, “Orthomolecular medical use of L-citrulline for capillary endothelial protection and adjacent cell protection in neurodegenerative disease” (priority 2004, published 2006).

The subject of series [1] is Human plasma Cohn fraction 1V-1 protein. As to the kind of experiment: Turbidimetric test of protein insolubility induced by Fenton-like reaction (ferrous sulfate + H2O2), nephelometer. The series is classed as biochemical. The following applies: amino acid at 400 microMol/L; 100 microMol/L ferrous sulfate + 40 microMol/L H2O2; pH 5.7-5.8; 37° Celsius, 30 minutes. As for the experimental part:
Human plasma Cohn fraction 1V-1 protein solutions (predominately alpha glycoglobulins, rich in lipid—obtained from Sigma Chemical Co.) of 40 mg/dl in saline solutions (140 NaCl mMol/L) were employed at existing pHs of 5.7-5.8 without additional confounding non-protein buffer. A nephelometer measured the intensity of reflected Tydall light. Developed turbidities were measured to quantify the insolubities of the dissolved proteins that were induced by introducing 100 microMol/L of ferrous sulfate and 40 microMol/L of H2O2 with incubations at 37° Celsius for 30 minutes. Insolubilities were standardized as the percent of maximal possible induced turbidities by comparison to similar protein solutions after mixing with the protein-precipitating agent sulfosalicylic acid at 1.5 g/dL.

Series [2] can be described thus: Case report: person taking L-citrulline capsules daily for 8 years. To be noted: donor one; long-term L-citrulline intake.

Take `NC(=O)NCCC[C@H](N)C(=O)O` [L-citrulline]: in series [1], the “mean inhibition of the insolubilities induced by the Fenton-like reactions” value (“mean inhibition” for short) is “did not inhibit”. In series [2], the Fasting blood glucose result is “within the normal range”, the Hematocrit stood at 38.5%, the blood hemoglobin was found to be 13.6 g/dL and the total leucocyte count is 6.800 /mcL.
For `NC(=O)CC[C@H](N)C(=O)O` [L-glutamine], the “mean inhibition” value in series [1] is on record as “did not inhibit”.
As to `N[C@@H](Cc1c[nH]cn1)C(=O)O` [L-histidine free base, L-histidine], in series [1], the “mean inhibition” value was 52.6%.
